# Assay results reported in US20250170224A1, “METHODS AND COMPOSITIONS FOR TREATING MICROGLIAL DYSFUNCTION AND IMPROVING METABOLIC DYSFUNCTION” (Ultimate Medicine AG, priority 2021, published 2025).
# Assay: In vivo intestinal permeability to CML (CML translocated into the circulation after oral gavage, LC-MS)
# Design: species or system mouse
# Settings: young-adult and aged mice, SPF or GF, 4 hours post gavage
# Experimental: Specific pathogen-free (SPF) and germ-free (GF) housed C57BL/6 mice were analyzed at 6-10 weeks of age (young-adult) and 96-104 weeks of age (aged). Mice of the aged group in the nontargeted metabolomics analysis were 17-18 months old. Except for nontargeted metabolomics and microbiota profiling, where only male mice were used, all groups included mice from both sexes. Mice were housed under a 12-hour light/12-hour dark cycle and temperatures of 18-23° C. with 40-60% humidity, with food and water given ad libitum. To avoid cage effects, mice from at least three different cages per experimental group were analyzed. […] Blood was collected retro-orbitally after 4 hours and fluorescence intensity was measured on fluorescence plates using an excitation wavelength of 493 nm and an emission wavelength of 518 nm. […] CML translocated into the circulation was measured by liquid chromatography-mass spectrometry (LC-MS). […]
# Samples were extracted with precooled (−80° C.) extraction solution (80:20 methanol LC-MS grade: Milli-Q H2O). Targeted metabolite quantification by LC-MS was carried out using an Agilent 1290 Infinity II UHPLC system in line with an Agilent 6495 QQQ-MS operating in multiple reaction monitoring (MRM) mode. […] Peak areas were identified based on standards for each metabolite and calculated using MassHunter v.B.08.02 (Agilent). […]
compound,measurement,value
"N[C@@H](CCCCNCC(=O)O)C(=O)O [CML, N^6-carboxymethyllysine]",translocation of CML into the circulation after oral gavage,highest in aged SPF mice
